Reference: ChEMBL document CHEMBL4420081, “Novel benzylamino substituted quinazolines and derivatives as sos1 inhibitors” (2018)
The source made the active and inactive calls. No cut-off for these calls is given here.

Experiments:
NCI-H2122 [1] = assay: Growth inhibition of human NCI-H2122 cells grown under 3D anchorage-independent soft-agar conditions at 1110 nM incubated for 14 days by alamar blue dye based assay relative to control; assay type: functional; conditions: NCI-H2122, 336 h, read-out: GI
NCI-H2122 [2] = assay: Growth inhibition of human NCI-H2122 cells grown under 3D anchorage-independent soft-agar conditions at 164 nM incubated for 14 days by alamar blue dye based assay relative to control; assay type: functional; conditions: NCI-H2122, 336 h, read-out: GI
NCI-H2122 [3] = assay: Growth inhibition of human NCI-H2122 cells grown under 3D anchorage-independent soft-agar conditions at 3330 nM incubated for 14 days by alamar blue dye based assay relative to control; assay type: functional; conditions: NCI-H2122, 336 h, read-out: GI
NCI-H2122 [4] = assay: Growth inhibition of human NCI-H2122 cells grown under 3D anchorage-independent soft-agar conditions at 123 nM incubated for 14 days by alamar blue dye based assay relative to control; assay type: functional; conditions: NCI-H2122, 336 h, read-out: GI
NCI-H2122 [5] = assay: Growth inhibition of human NCI-H2122 cells grown under 3D anchorage-independent soft-agar conditions at 370 nM incubated for 14 days by alamar blue dye based assay relative to control; assay type: functional; conditions: NCI-H2122, 336 h, read-out: GI
PC-9 [6] = assay: Growth inhibition of human PC9 cells grown under 3D anchorage-independent soft-agar conditions at 50 nM incubated for 14 days by alamar blue dye based assay relative to control; assay type: functional; conditions: PC-9, 336 h, read-out: GI
PC-9 [7] = assay: Growth inhibition of human PC9 cells grown under 3D anchorage-independent soft-agar conditions at 16.7 nM incubated for 14 days by alamar blue dye based assay relative to control; assay type: functional; conditions: PC-9, 336 h, read-out: GI
PC-9 [8] = assay: Growth inhibition of human PC9 cells grown under 3D anchorage-independent soft-agar conditions at 5.56 nM incubated for 14 days by alamar blue dye based assay relative to control; assay type: functional; conditions: PC-9, 336 h, read-out: GI
PC-9 [9] = assay: Growth inhibition of human PC9 cells grown under 3D anchorage-independent soft-agar conditions at 1.85 nM incubated for 14 days by alamar blue dye based assay relative to control; assay type: functional; conditions: PC-9, 336 h, read-out: GI
PC-9 [10] = assay: Growth inhibition of human PC9 cells grown under 3D anchorage-independent soft-agar conditions at 0.617 nM incubated for 14 days by alamar blue dye based assay relative to control; assay type: functional; conditions: PC-9, 336 h, read-out: GI
SW900 [11] = assay: Growth inhibition of human SW900 cells grown under 3D anchorage-independent soft-agar conditions at 1110 nM incubated for 14 days by alamar blue dye based assay relative to control; assay type: functional; conditions: SW900, 336 h, read-out: GI
NCI-H1792 [12] = assay: Growth inhibition of human NCI-H1792 cells grown under 3D anchorage-independent soft-agar conditions at 3330 nM incubated for 14 days by alamar blue dye based assay relative to control; assay type: functional; conditions: NCI-H1792, 336 h, read-out: GI
SW900 [13] = assay: Growth inhibition of human SW900 cells grown under 3D anchorage-independent soft-agar conditions at 123 nM incubated for 14 days by alamar blue dye based assay relative to control; assay type: functional; conditions: SW900, 336 h, read-out: GI
NCI-H1792 [14] = assay: Growth inhibition of human NCI-H1792 cells grown under 3D anchorage-independent soft-agar conditions at 1110 nM incubated for 14 days by alamar blue dye based assay relative to control; assay type: functional; conditions: NCI-H1792, 336 h, read-out: GI
SW900 [15] = assay: Growth inhibition of human SW900 cells grown under 3D anchorage-independent soft-agar conditions at 3330 nM incubated for 14 days by alamar blue dye based assay relative to control; assay type: functional; conditions: SW900, 336 h, read-out: GI
SW900 [16] = assay: Growth inhibition of human SW900 cells grown under 3D anchorage-independent soft-agar conditions at 370 nM incubated for 14 days by alamar blue dye based assay relative to control; assay type: functional; conditions: SW900, 336 h, read-out: GI
NCI-H1792 [17] = assay: Growth inhibition of human NCI-H1792 cells grown under 3D anchorage-independent soft-agar conditions at 370 nM incubated for 14 days by alamar blue dye based assay relative to control; assay type: functional; conditions: NCI-H1792, 336 h, read-out: GI
SW900 [18] = assay: Growth inhibition of human SW900 cells grown under 3D anchorage-independent soft-agar conditions at 164 nM incubated for 14 days by alamar blue dye based assay relative to control; assay type: functional; conditions: SW900, 336 h, read-out: GI
NCI-H1792 [19] = assay: Growth inhibition of human NCI-H1792 cells grown under 3D anchorage-independent soft-agar conditions at 164 nM incubated for 14 days by alamar blue dye based assay relative to control; assay type: functional; conditions: NCI-H1792, 336 h, read-out: GI
NCI-H1792 [20] = assay: Growth inhibition of human NCI-H1792 cells grown under 3D anchorage-independent soft-agar conditions at 123 nM incubated for 14 days by alamar blue dye based assay relative to control; assay type: functional; conditions: NCI-H1792, 336 h, read-out: GI
NCI-H1792 [21] = assay: Growth inhibition of human NCI-H1792 cells grown under 3D anchorage-independent soft-agar conditions at 11.1 nM incubated for 14 days by alamar blue dye based assay relative to control; assay type: functional; conditions: NCI-H1792, 336 h, read-out: GI
NCI-H1792 [22] = assay: Growth inhibition of human NCI-H1792 cells grown under 3D anchorage-independent soft-agar conditions at 100 nM incubated for 14 days by alamar blue dye based assay relative to control; assay type: functional; conditions: NCI-H1792, 336 h, read-out: GI
A549 [23] = assay: Growth inhibition of human A549 cells grown under 3D anchorage-independent soft-agar conditions at 11.1 nM incubated for 14 days by alamar blue dye based assay relative to control; assay type: functional; conditions: A549, 336 h, read-out: GI
A549 [24] = assay: Growth inhibition of human A549 cells grown under 3D anchorage-independent soft-agar conditions at 33.3 nM incubated for 14 days by alamar blue dye based assay relative to control; assay type: functional; conditions: A549, 336 h, read-out: GI
MIA PaCa-2 = assay: Antitumor activity against human MIAPaCa2 cells grown under 3D anchorage-independent soft-agar conditions at xenografted in BomTacNMRI-Foxn1 nu mouse assessed as inhibition of tumor regression at 10 mg/kg, iv dosed in q7d regime relative to control; assay type: functional, organism-based
A549 [25] = assay: Growth inhibition of human A549 cells grown under 3D anchorage-independent soft-agar conditions at 1.23 nM incubated for 14 days by alamar blue dye based assay relative to control; assay type: functional; conditions: A549, 336 h, read-out: GI
NCI-H1792 [26] = assay: Growth inhibition of human NCI-H1792 cells grown under 3D anchorage-independent soft-agar conditions at 33.3 nM incubated for 14 days by alamar blue dye based assay relative to control; assay type: functional; conditions: NCI-H1792, 336 h, read-out: GI
A549 [27] = assay: Growth inhibition of human A549 cells grown under 3D anchorage-independent soft-agar conditions at 100 nM incubated for 14 days by alamar blue dye based assay relative to control; assay type: functional; conditions: A549, 336 h, read-out: GI
A549 [28] = assay: Growth inhibition of human A549 cells grown under 3D anchorage-independent soft-agar conditions at 3.7 nM incubated for 14 days by alamar blue dye based assay relative to control; assay type: functional; conditions: A549, 336 h, read-out: GI
NCI-H1792 [29] = assay: Growth inhibition of human NCI-H1792 cells grown under 3D anchorage-independent soft-agar conditions at 3.7 nM incubated for 14 days by alamar blue dye based assay relative to control; assay type: functional; conditions: NCI-H1792, 336 h, read-out: GI
NCI-H1792 [30] = assay: Growth inhibition of human NCI-H1792 cells grown under 3D anchorage-independent soft-agar conditions at 1.23 nM incubated for 14 days by alamar blue dye based assay relative to control; assay type: functional; conditions: NCI-H1792, 336 h, read-out: GI
A549 [31] = assay: Growth inhibition of human A549 cells grown under 3D anchorage-independent soft-agar conditions at 1110 nM incubated for 14 days by alamar blue dye based assay relative to control; assay type: functional; conditions: A549, 336 h, read-out: GI
A549 [32] = assay: Growth inhibition of human A549 cells grown under 3D anchorage-independent soft-agar conditions at 164 nM incubated for 14 days by alamar blue dye based assay relative to control; assay type: functional; conditions: A549, 336 h, read-out: GI
A549 [33] = assay: Growth inhibition of human A549 cells grown under 3D anchorage-independent soft-agar conditions at 123 nM incubated for 14 days by alamar blue dye based assay relative to control; assay type: functional; conditions: A549, 336 h, read-out: GI
A549 [34] = assay: Growth inhibition of human A549 cells grown under 3D anchorage-independent soft-agar conditions at 370 nM incubated for 14 days by alamar blue dye based assay relative to control; assay type: functional; conditions: A549, 336 h, read-out: GI
A549 [35] = assay: Growth inhibition of human A549 cells grown under 3D anchorage-independent soft-agar conditions at 3330 nM incubated for 14 days by alamar blue dye based assay relative to control; assay type: functional; conditions: A549, 336 h, read-out: GI

CCN1CCN(Cc2ccc(Nc3ncc(F)c(-c4cc(F)c5nc(C)n(C(C)C)c5c4)n3)nc2)CC1 [ABEMACICLIB]
inhibition of growth at 1.11 µM (NCI-H2122 [1]): 91% | inhibition of growth at 0.164 µM (NCI-H2122 [2]): 103% | inhibition of growth at 3.33 µM (NCI-H2122 [3]): 81% | inhibition of growth at 0.123 µM (NCI-H2122 [4]): 10% | inhibition of growth at 0.37 µM (NCI-H2122 [5]): 73%

C#Cc1cccc(Nc2ncnc3cc(OCCOC)c(OCCOC)cc23)c1 [ERLOTINIB]
inhibition of growth at 0.05 µM (PC-9 [6]): 199% | inhibition of growth at 0.0167 µM (PC-9 [7]): 147% | inhibition of growth at 0.00556 µM (PC-9 [8]): 49% | inhibition of growth at 0.00185 µM (PC-9 [9]): 12% | inhibition of growth at 0.000617 µM (PC-9 [10]): 0%

COC(=O)c1ccc2c(c1)NC(=O)/C2=C(\Nc1ccc(N(C)C(=O)CN2CCN(C)CC2)cc1)c1ccccc1 [NINTEDANIB]
inhibition of growth at 1.11 µM (SW900 [11]): -18% | inhibition of growth at 3.33 µM (NCI-H1792 [12]): 86% | inhibition of growth at 0.123 µM (SW900 [13]): -39% | inhibition of growth at 1.11 µM (NCI-H1792 [14]): 26% | inhibition of growth at 3.33 µM (SW900 [15]): 19% | inhibition of growth at 0.37 µM (SW900 [16]): -37% | inhibition of growth at 0.37 µM (NCI-H1792 [17]): 7% | inhibition of growth at 0.164 µM (SW900 [18]): 199% | inhibition of growth at 0.164 µM (NCI-H1792 [19]): 186% | inhibition of growth at 0.123 µM (NCI-H1792 [20]): 1%

CC(=O)O[C@H]1C(=O)[C@@]2(C)[C@H]([C@H](OC(=O)c3ccccc3)[C@]3(O)C[C@H](OC(=O)[C@H](O)[C@@H](NC(=O)c4ccccc4)c4ccccc4)C(C)=C1C3(C)C)[C@]1(OC(C)=O)CO[C@@H]1C[C@@H]2O [PACLITAXEL]
inhibition of growth at 0.0111 µM (NCI-H1792 [21]): 66% | inhibition of growth at 0.1 µM (NCI-H1792 [22]): 183% | inhibition of growth at 0.0111 µM (A549 [23]): 86% | inhibition of growth at 0.0333 µM (A549 [24]): 97% | inhibition (MIA PaCa-2): inactive | inhibition of growth at 0.00123 µM (A549 [25]): 12% | inhibition of growth at 0.0333 µM (NCI-H1792 [26]): 96% | inhibition of growth at 0.1 µM (A549 [27]): 114% | inhibition of growth at 0.0037 µM (A549 [28]): 54% | inhibition of growth at 0.0037 µM (NCI-H1792 [29]): 19% | inhibition of growth at 0.00123 µM (NCI-H1792 [30]): 7%

COc1cc(F)c(F)c(Nc2ccc(I)cc2F)c1NS(=O)(=O)C1(C[C@H](O)CO)CC1 [REFAMETINIB]
inhibition of growth at 1.11 µM (A549 [31]): 75% | inhibition of growth at 0.164 µM (A549 [32]): 212% | inhibition of growth at 0.123 µM (A549 [33]): 5% | inhibition of growth at 0.37 µM (A549 [34]): 11% | inhibition of growth at 3.33 µM (A549 [35]): 209%
